Key:
[1] = Half-life compared to finasteride and SKF105657
5α-reductase = assay: Potency compared to finasteride and SKF105657
[2] = biological target: T1, human type 2 5α-reductase (Homo sapiens, UniProt P31213); assay: Steroid 5α-reductase type 2 inhibition (microsomes, conversion of testosterone to DHT); type: biochemical
T1 construct: made in house; host or cells: SF9 insect cells infected with recombinant baculovirus (microsomes)
T1 sequence (P31213 1-254): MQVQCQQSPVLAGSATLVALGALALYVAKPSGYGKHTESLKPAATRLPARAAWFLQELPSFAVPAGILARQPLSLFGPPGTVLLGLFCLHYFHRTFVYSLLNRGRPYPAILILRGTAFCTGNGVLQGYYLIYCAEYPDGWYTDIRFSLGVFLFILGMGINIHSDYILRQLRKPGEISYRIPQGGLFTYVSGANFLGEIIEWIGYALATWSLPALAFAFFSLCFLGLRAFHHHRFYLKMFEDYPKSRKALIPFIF
Experimental: (§1) Enzyme activies may be determined using microsomes derived from: 1) prostate tissue from benign prostatic hyperplasia (BPH) patients; 2) recombinant baculovirus infected SF9 cells that express human type 1 5α-reductase; or 3) recombinant baculovirus infected SF9 cells that express human type 2 5α-reductase. Microsomes were prepared by homogenization of the tissue or cells, followed by differential centrifugation of the homogenate. Microsome extracts were incubated with varying concentrations of [1,2,6,7-3H]-testosterone, 1 mM NADPH, and varying amounts of the compounds of Formula I, i.e. a test compound, in buffer containing a NADPH regenerating system capable of maintaining NADPH concentrations for a period of time within the range 0.5-240 minutes. Corresponding incubations were carried out with no test compound as a control study. For clone 1 IC50 measurements, assay components except testosterone were preincubated for 10 minutes at pH 7.0, and following the addition of 100 nM testosterone the assays were allowed to proceed for 10-120 minutes. For clone 2 IC50 measurements, assay components except testosterone were preincubated for 20 minutes at pH 6.0, and following the addition of 8 nM testosterone the assays were allowed to proceed for 20-40 minutes. […]

Human Adrenal 3BHSD = biological target: T2, Human Adrenal 3BHSD (Homo sapiens, UniProt P26439); assay: Human adrenal 3β-hydroxy-Δ^5-steroid dehydrogenase/3-keto-Δ^5-steroid isomerase inhibition (microsomes, conversion of DHEA to androstenedione); type: biochemical
T2 construct: microsomes derived from human adrenal tissues; from tissue; host or cells: human adrenal tissue (microsomes)
T2 sequence (P26439 1-372): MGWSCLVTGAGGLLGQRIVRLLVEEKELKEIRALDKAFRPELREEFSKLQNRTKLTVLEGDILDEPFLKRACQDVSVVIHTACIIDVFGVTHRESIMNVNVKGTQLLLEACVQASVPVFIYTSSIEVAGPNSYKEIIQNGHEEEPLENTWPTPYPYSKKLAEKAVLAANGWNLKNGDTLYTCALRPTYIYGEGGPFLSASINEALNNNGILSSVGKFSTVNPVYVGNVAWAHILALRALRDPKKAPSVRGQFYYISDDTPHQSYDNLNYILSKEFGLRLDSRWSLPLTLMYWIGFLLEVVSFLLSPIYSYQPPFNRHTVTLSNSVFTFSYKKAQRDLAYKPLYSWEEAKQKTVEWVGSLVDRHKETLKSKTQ
Experimental: Enzyme activities are measured using microsomes derived from human adrenal tissues. Microsomes were prepared by homogenization of the tissue followed by differential centrifugation of the homogenate. Microsome extracts were incubated with varying concentrations of dehydroepiandrosterone (DHEA), 1 mM NAD+, and varying amounts of the compound of Formula (I), i.e. a test compound, in pH 7.5 buffer for a period of time within the range of 1 to 60 minutes. Corresponding incubations were carried out with no test compound as a control study. The percentage of conversion of DHEA to androstenedione in the presence of test compounds compared to the corresponding conversion in the control study was estimated using HPLC with radiochemical detection.

[3] = biological target: T3, human type 1 5α-reductase (Homo sapiens, UniProt P18405); assay: Steroid 5α-reductase type 1 inhibition (microsomes, conversion of testosterone to DHT); type: biochemical
T3 construct: made in house; host or cells: SF9 insect cells infected with recombinant baculovirus (microsomes)
T3 sequence (P18405 1-259): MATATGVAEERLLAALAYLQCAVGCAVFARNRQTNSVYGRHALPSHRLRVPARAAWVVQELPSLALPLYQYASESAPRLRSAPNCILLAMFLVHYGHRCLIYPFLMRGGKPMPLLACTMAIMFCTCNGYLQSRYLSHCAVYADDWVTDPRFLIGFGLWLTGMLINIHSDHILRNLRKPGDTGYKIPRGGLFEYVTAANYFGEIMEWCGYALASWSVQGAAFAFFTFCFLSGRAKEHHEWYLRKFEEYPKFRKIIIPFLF
Experimental: as §1

[4] = system: bovine adrenal 3β-hydroxy-Δ^5-steroid dehydrogenase/3-keto-Δ^5-steroid isomerase (3BHSD); details: Tan et al. 1987; Brandt and Levy 1989; cited from earlier work
[5] = system: porcine granulosa cell 3β-hydroxy-Δ^5-steroid dehydrogenase/3-keto-Δ^5-steroid isomerase (3BHSD); details: Tan et al. 1987; Brandt and Levy 1989; cited from earlier work
[6] = McConnell 1990; Rasmusson et al. 1984; cited from earlier work

Row | SMILES | half-life [1] | potency (5α-reductase) | IC50 [2] [nM] | Ki (Human Adrenal 3BHSD) [nM] | IC50 [3] [nM] | inhibition of bovine adrenal 3BHSD [4] | inhibition of porcine granulosa cell 3BHSD [5] | hepatotoxicity [6]
1 | C[C@]12C=CC(=O)N[C@@H]1CC[C@@H]1[C@@H]2CC[C@]2(C)[C@@H](C(=O)Nc3cc(C(F)(F)F)ccc3C(F)(F)F)CC[C@@H]12 [compound of formula (I), 17β-N-(2,5-bis(Trifluoromethyl))phenylcarbamoyl-4-aza-5α-androst-1-en-3-one] | surprisingly long half-life | surprisingly long half-life and potency compared to finasteride and SKF105657 | < 1 | > 1000 | < 1 | – | – | –
2 | CCN(CC)C(=O)[C@H]1CC[C@H]2[C@@H]3CC[C@H]4N(C)C(=O)CC[C@]4(C)[C@H]3CC[C@]12C [4-MA] | – | – | – | – | – | potent inhibition | potent inhibition | hepatotoxicity
